This is an account of results in patent US12162888B2, “Carboxamides as ubiquitin-specific protease inhibitors” (Valo Early Discovery, Inc., priority 2018, dated 2024).

pIC50: −log10 of the molar value. Some results are limits rather than exact numbers.

Assay [1] addresses T1, USP28 (USP28-5(1-1077)-TEV-6*His; LifeSensors) (Homo sapiens, UniProt Q96RU2).
T1 construct: construct USP28 (USP28-5(1-1077)-TEV-6*His; LifeSensors); TEV cleavage site (C); 6xHis (C); purchased LifeSensors
T1 sequence (Q96RU2 1-1077): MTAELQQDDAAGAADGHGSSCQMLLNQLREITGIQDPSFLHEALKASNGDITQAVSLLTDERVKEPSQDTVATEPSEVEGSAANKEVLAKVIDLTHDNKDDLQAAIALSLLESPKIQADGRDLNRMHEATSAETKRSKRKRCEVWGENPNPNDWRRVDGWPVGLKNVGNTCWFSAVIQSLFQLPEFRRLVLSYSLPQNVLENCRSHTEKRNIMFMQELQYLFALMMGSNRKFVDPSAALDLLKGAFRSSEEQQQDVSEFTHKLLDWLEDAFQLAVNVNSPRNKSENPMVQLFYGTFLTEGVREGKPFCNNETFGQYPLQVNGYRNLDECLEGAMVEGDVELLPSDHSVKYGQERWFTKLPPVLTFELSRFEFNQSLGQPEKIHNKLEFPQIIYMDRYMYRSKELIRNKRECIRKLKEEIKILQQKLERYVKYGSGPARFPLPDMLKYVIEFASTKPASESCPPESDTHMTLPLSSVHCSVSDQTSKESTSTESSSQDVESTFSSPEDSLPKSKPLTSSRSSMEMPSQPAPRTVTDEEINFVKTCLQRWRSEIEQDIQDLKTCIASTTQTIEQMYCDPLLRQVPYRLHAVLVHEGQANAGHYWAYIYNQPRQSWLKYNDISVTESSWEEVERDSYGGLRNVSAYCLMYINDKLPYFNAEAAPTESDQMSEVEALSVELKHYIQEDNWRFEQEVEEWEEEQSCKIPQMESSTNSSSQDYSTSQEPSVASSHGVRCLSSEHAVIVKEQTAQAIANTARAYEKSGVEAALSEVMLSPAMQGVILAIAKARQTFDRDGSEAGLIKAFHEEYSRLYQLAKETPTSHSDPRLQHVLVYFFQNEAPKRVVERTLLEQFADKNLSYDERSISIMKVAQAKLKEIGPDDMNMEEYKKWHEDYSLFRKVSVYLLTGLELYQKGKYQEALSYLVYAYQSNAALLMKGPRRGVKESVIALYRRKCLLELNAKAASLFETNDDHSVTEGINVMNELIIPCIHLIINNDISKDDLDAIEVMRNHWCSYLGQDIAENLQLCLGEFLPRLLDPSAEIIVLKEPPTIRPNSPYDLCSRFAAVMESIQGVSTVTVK
Nature of the assay: Ubiquitin-Rhodamine 110 Assay for USP28 Activity, Example A-1(b). The class given is biochemical. As for the experimental part: Example A-1(b): Biochemical Assay: Ubiquitin-Rhodamine 110 Assay for USP28 Activity
Each assay was performed in a final volume of 20 μL in assay buffer containing 20 mM Tris-HCl (pH 8.0, (1M Tris-HCl, pH 8.0 solution; Corning 46-031-CM)), 2 mM CaCl2 (1M Calcium Chloride solution; Sigma #21114) 2 mM BME (2-Mercaptoethanol; Sigma 63689-25ML-F), 0.01% Prionex (0.22 μM filtered, Sigma #G-0411), and 0.01% Triton X-100. Stock compound solutions were stored at −20° C. as 10 mM in DMSO. Up to 1 month prior to the assay, 2 mM test compounds were pre-dispensed into assay plates (Black, low volume; Corning #3820) and frozen at −20° C. Prestamped assay plates were allowed to come to room temperature on the day of the assay. For the screen, 100 nL of 2 mM was pre-dispensed for a final screening concentration of 10 μM (DMSO(fc)=0.5%). […] Plates were incubated stacked for 90 minutes at room temperature before fluorescence was read on the Envision (Excitation at 485 nm and Emission at 535 nm; Perkin Elmer) or on the PheraSTAR (Excitation at 485 nm and Emission at 535 nm; BMG Labtech).
For follow-up studies, each assay was performed in a final volume of 15 μL in assay buffer containing 20 mM Tris-HCl (pH 8.0, (1M Tris-HCl, pH 8.0 solution; Corning 46-031-CM)), 3 mM BME (2-Mercaptoethanol; Sigma 63689-25ML-F), 0.03% BGG (0.22 μM filtered, Sigma, G7516-25G), and 0.01% Triton X-100 (Sigma, T9284-10L). Nanoliter quantities of either an 8-point or 10-point, 3-fold serial dilution in DMSO was pre-dispensed into assay plates (Perkin Elmer, ProxiPlate-384 F Plus, #) for a final test concentration of either 25 μM to 11 nM or 25 μM to 1.3 nM, respectively. Enzyme USP28, construct USP28 (USP28-5(1-1077)-TEV-6*His; LifeSensors) concentration and incubation times were optimized for the maximal signal-to-background while maintaining initial velocity conditions at a fixed substrate concentration. The final concentration of the enzyme in the assay was […]. Final substrate (Ub-Rh110; Ubiquitin-Rhodamine 110, R&D Systems #U-555) concentration was 25 nM with [Ub-Rh110]<<Km. 5 μL of 2× enzyme was added to assay plates (pre-stamped with compound) preincubated with USP28 for 30 minutes and then 5 μL of 2× Ub-Rh110 was added to assay plates. Plates were incubated stacked for 20 minutes at room temperature before 5 μL of stop solution was added (final concentration of 10 mM citric acid (Sigma, 251275-500G)). Fluorescence was read on the Envision (Excitation at 485 nm and Emission at 535 nm; Perkin Elmer) or on the PheraSTAR (Excitation at 485 nm and Emission at 535 nm; BMG Labtech).
For assay formats Example A-1(a), A-1(b), and A-2, data were reported as percent inhibition compared with control wells based on the following equation: % inh=1−((FLU−AveLow)/(AveHigh−AveLow)) where FLU=measured Fluorescence, AveLow=average Fluorescence of no enzyme control (n=16), and AveHighh=average Fluorescence of DMSO control (n=16). IC50 values were determined by curve fitting of the standard 4 parameter logistic fitting algorithm included in the Activity Base software package: IDBS XE Designer Model 205. Data is fitted using the Levenburg Marquardt algorithm.

Assay [2] is described as follows: Ubiquitin-Rhodamine 110 Assay for USP25 Activity, Example A-3. Format: biochemical. Particulars: Ubiquitin-Rhodamine 110 biochemical assay, Example A-1(b); read-out: USP28 A-1(b) IC50 range. An outline of the steps: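 USP25-His6 ([…] final as stated) preincubated 30 min with compound (10-point, 25 μM to 1.3 nM), then Ub-Rh110 at 25 nM (<<Km) added in pH 8.0 Tris buffer with BME, BGG and Triton X-100. Reaction stopped after 45 min at room temperature with 10 mM citric acid; fluorescence read at 485/535 nm.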

Assay [3] addresses T2, USP28 (His-tagged USP28-FL-mammalian) (Homo sapiens, UniProt Q96RU2).
T2 construct: Expression of USP28 (1-1077)-TEV-6*His (pTT5 vector) was carried out in Expi293f cells; made in house; host or cells: Expi293F cells (pTT5 vector)
T2 sequence (Q96RU2 1-1077): T1 sequence (Q96RU2 1-1077)
In words: Ubiquitin-Rhodamine 110 Assay for USP28 Activity, Example A-1(a). Format: biochemical. The following applies: Ubiquitin-Rhodamine 110 biochemical assay, read-out: USP28 A-1(a) IC50 range. An outline of the steps: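 IC50s were fitted with a 4-parameter logistic to percent inhibition relative to no-enzyme and DMSO controls, using Rhodamine 110 fluorescence (485/535 nm) released from 25 nM Ub-Rh110. The enzyme was Expi293F-expressed USP28-FL-His at […], preincubated 30 min with compound (10-point, 25 μM top) in Tris pH 8.0 buffer containing BGG and Triton X-100. Substrate turnover ran 45 min at room temperature and was stopped with 10 mM citric acid.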

The test system of assay [4] is human eosinophil EOL-1 (DSMZ no. ACC 386) cells. Nature of the assay: In Vivo Xenograft Studies, Example A-2. The following applies: EOL-1 cells subcutaneous in flank of mice; first test compound 50-120 mg/kg orally or subcutaneously, second test compound 40 or 60 mg/kg orally twice per day; versus vehicle (FIG. 2). As to the method: Example A-2: In Vivo Xenograft Studies
Mice were injected subcutaneously in the flank with human eosinophil EOL-1 (DSMZ no. ACC 386) cells (NCI). Injections with cells (circles, FIG. 2A) and with vehicle alone (triangles, FIG. 2B) were monitored, and when tumors reached a critical size (for example, about 1000 mm^3), mice were randomized into treatment groups, including vehicle control and reference standard groups. The groups, as shown in FIG. 2B are as follows: Group 1, vehicle administered orally every other day; Group 2, first test compound ((S)-amino-N-(5-fluoro-7-(piperazin-1-yl)chroman-3-yl)-6-methylthieno[2,3-b]pyridine-2-carboxamide) at 120 mg/kg, administered orally every other day; Group 3, first test compound at 80 mg/kg, administered orally every other day; Group 4, first test compound at 80 mg/kg, administered subcutaneously twice per day, every other day thereafter; Group 5, first test compound at 60 mg/kg, administered subcutaneously twice per day for four consecutive days, with no administration for three days. […] The mice were weighed and tumors measured using vernier calipers on indicated days. Tumor volume was calculated according to the formula (length×width^2)/2.

Regarding `CCn1ccc2cc(C(=O)N[C@@H]3CCc4cc(N5CC6CCC(C5)N6)ccc4C3)nnc21` (single isomer, unassigned) [Example 11-23], the “USP28 A-1(b) IC50 range” value in assay [1] is listed as “+ (“+”L>2 μM)”. On the same count and under the same terms, with `CCn1ccc2cc(C(=O)N[C@H]3CCc4cc(N5CC6CCC(C5)N6)ccc4C3)nnc21` (single isomer, unassigned) [Example 11-24] the entry was “+ (“+”L>2 μM)”; with `Cc1ccc2c(N)c(C(=O)N[C@H]3COc4cc(N5C[C@@H]6CNC[C@H]6C5)ccc4C3)sc2n1` [Example 43, 3-amino-N-((R)-7-((3aR,6aR)-hexahydropyrrolo[3,4-c]pyrrol-2(1H)-yi)chroman-3-yl)-6-methylthieno[2,3-b]pyridine-2-carboxamide], “+ (“+”L>2 μM)”.

Take `CCN[C@H]1CN(c2ccc3c(n2)CC[C@H](NC(=O)c2sc4nc(C)ccc4c2N)C3)C[C@@H]1COC` [Example 476, 3-amino-N-[(6S)-2-[(3R,4S)-3-(ethylamino)-4-(methoxymethyl)pyrrolidin-1-yl]-5,6,7,8-tetrahydroquinolin-6-yl]-6-methylthieno[2,3-b]pyridine-2-carboxamide]: the pIC50 in assay [2] is below 5.70; in assay [3] it was 6.70 to 7.30.

With `CCN[C@@H]1CN(c2ccc3c(n2)CC[C@H](NC(=O)c2sc4nc(C)ccc4c2N)C3)C[C@H]1COC` [Example 477, 3-amino-N-[(6S)-2-[(3S,4R)-3-(ethylamino)-4-(methoxymethyl)pyrrolidin-1-yl]-5,6,7,8-tetrahydroquinolin-6-yl]-6-methylthieno[2,3-b]pyridine-2-carboxamide], the negative logarithm of the IC50 (pIC50) in assay [2] is below 5.70; in assay [3], 6.70 to 7.30.

Consider `Cc1ccc2c(N)c(C(=O)N[C@H]3CCc4nc(N5CC[C@@H](N)[C@@H]5C(F)F)ccc4C3)sc2n1` [Example 478, 3-amino-N-[(6S)-2-[(2R,3R)-3-amino-2-(difluoromethyl)pyrrolidin-1-yl]-5,6,7,8-tetrahydroquinolin-6-yl]-6-methylthieno[2,3-b]pyridine-2-carboxamide], for which the pIC50 in assay [2] was below 5.70; in assay [3] it was 6.70 to 7.30. For `Cc1ccc2c(N)c(C(=O)N[C@H]3CCc4nc(N5CC[C@H](N)[C@H]5C(F)F)ccc4C3)sc2n1` [Example 479, 3-amino-N-[(6S)-2-[(2S,3S)-3-amino-2-(difluoromethyl)pyrrolidin-1-yl]-5,6,7,8-tetrahydroquinolin-6-yl]-6-methylthieno[2,3-b]pyridine-2-carboxamide], in that order: 6.70 to 7.30 and 7.30 to 9.00. The corresponding values for `Cc1nc2sc(C(=O)N[C@H]3CCc4nc(N5C[C@@H](CF)[C@H](N)C5)ccc4C3)c(N)c2cc1F` [Example 507, 3-amino-N-[(6S)-2-[(3S,4R)-3-amino-4-(fluoromethyl)pyrrolidin-1-yl]-5,6,7,8-tetrahydroquinolin-6-yl]-5-fluoro-6-methylthieno[2,3-b]pyridine-2-carboxamide] are 5.70 to 6.70 and 6.70 to 7.30.

As to `Cc1ccc2c(N)c(C(=O)N[C@@H]3COc4cc(N5CCNCC5)cc(F)c4C3)sc2n1` [first test compound, (S)-amino-N-(5-fluoro-7-(piperazin-1-yl)chroman-3-yl)-6-methylthieno[2,3-b]pyridine-2-carboxamide], in assay [4], the “tumor growth (tumor volume, (length×width^2)/2)” value is on record as “slowing of tumor growth over time”.

By pIC50 is commonly meant −log10 of the IC50, conventionally taken in molar units.
